Counter-ions that a name gives are not always drawn.
Tests used:
[1] = Stability studies of varenicline crystalline salts (one year storage, HPLC and XRD); assay type: physicochemical; settings: for Purity (HPLC) % 1 year later: after one year at room temperature; for Purity (HPLC) % 1 year later / Purity (HPLC) % initial / XRD result 1 year later: normal pressure, ambient atmosphere; for XRD result Initial: initial polymorphic form, before storage; for Purity (HPLC) % initial: before storage at room temperature; for Stability in terms of chemical purity and polymorphic form (in words): after one year of storage; for XRD result 1 year later: polymorphic form after one year at room temperature
Method: The varenicline crystalline salts were stored under standard conditions (i.e. room temperature, normal pressure, ambient atmosphere). The samples were analyzed after one year by HPLC and XRD.

[2] = Solubility in water of varenicline salts; assay type: physicochemical

Compound	Purity (HPLC) % 1 year later [1]	XRD result Initial [1]	Purity (HPLC) % initial [1]	XRD result 1 year later [1]	Solubility in water [2]	other results
O=C(O)C(O)c1ccccc1.c1cnc2cc3c(cc2n1)C1CNCC3C1 (racemic) [Example 10, varenicline DL-mandelate]	95.55%	Form I	99.93%	–	–	–
CC(O)C(=O)O.c1cnc2cc3c(cc2n1)C1CNCC3C1 (racemic) [Example 17, varenicline DL-lactate]	98.48%	Form I	98.98%	–	–	–
O=C(O)CCCCC(=O)O.c1cnc2cc3c(cc2n1)C1CNCC3C1.c1cnc2cc3c(cc2n1)C1CNCC3C1 [Example 1, varenicline hemi-adipate]	99.77%	Form I	99.89%	Form I	–	Stability in terms of chemical purity and polymorphic form (in words) [1]: highly stable in terms of chemical purity and of polymorphic form
O=C(O)CCCC(=O)O.c1cnc2cc3c(cc2n1)C1CNCC3C1 [Example 3, varenicline glutarate]	97.90%	Form I	98.77%	–	–	–
c1cnc2cc3c(cc2n1)[C@@H]1CNC[C@H]3C1 [Example 5, varenicline hydrochloride]	–	–	–	–	–	solubility [2]: > 20 mg/mL
O=C(O)CCC(=O)C(=O)O.c1cnc2cc3c(cc2n1)C1CNCC3C1 [Example 6, varenicline α-ketoglutarate]	98.45%	Form I	99.71%	–	–	–
O=C(O)CC(=O)O.c1cnc2cc3c(cc2n1)C1CNCC3C1 [Example 9, varenicline malonate]	99.45%	Form I	99.91%	–	–	–
O=S(=O)(O)CCS(=O)(=O)O.c1cnc2cc3c(cc2n1)C1CNCC3C1.c1cnc2cc3c(cc2n1)C1CNCC3C1 [Example 18, Varenicline Hemi-1,2-Ethane Disulfonate]	99.36%	Form I	99.97%	–	–	–
c1cnc2cc3c(cc2n1)[C@@H]1CNC[C@H]3C1 [Hydrochloride, varenicline hydrochloride, reference compound]	99.68%	Form II	99.91%	Forms II + III	–	–
varenicline L-malate [Example 7]	–	–	–	–	>20 mg/mL	Purity (HPLC) % 1 year later ([1]; listed as Malate Form I): 99.47%; Stability in terms of chemical purity and polymorphic form (in words) ([1]; listed as varenicline L-malate Form I): stable in terms of chemical purity; XRD result Initial ([1]; listed as Malate Form I): Form I; Purity (HPLC) % initial ([1]; listed as Malate Form I): 99.95%; Solubility in water (in words) [2]: highly soluble
varenicline L-malate [Malate Form II]	99.66%	Form II	99.94%	Form II	–	Stability in terms of chemical purity and polymorphic form (in words) ([1]; listed as varenicline L-malate Form II): highly stable in terms of chemical purity and of polymorphic form
varenicline S-2-pyrrolidinon-5-carboxylate [Example 14]	99.83%	Form I	99.99%	Form I	–	Stability in terms of chemical purity and polymorphic form (in words) [1]: highly stable in terms of chemical purity and in terms of polymorphic form
varenicline di-mesylate [Example 11]	99.28%	Form I	99.99%	–	>20 mg/mL	–
varenicline fumarate [Example 2]	99.76%	Form I	99.84%	Form I	>20 mg/mL	Stability in terms of chemical purity and polymorphic form (in words) [1]: highly stable in terms of chemical purity and of polymorphic form; Solubility in water (in words) [2]: highly soluble
varenicline galactarate [Example 16]	99.71%	Form I	99.91%	Form I	>20 mg/mL	Stability in terms of chemical purity and polymorphic form (in words) [1]: highly stable in terms of chemical purity and of polymorphic form; Solubility in water (in words) [2]: highly soluble
varenicline glycolate [Example 4]	99.57%	Form I	99.95%	–	–	–
varenicline maleate [Example 8]	99.90%	Form I	100%	Form I	>20 mg/mL	Stability in terms of chemical purity and polymorphic form (in words) [1]: highly stable in terms of chemical purity and of polymorphic form; Solubility in water (in words) [2]: highly soluble
varenicline oxalate [Example 12]	99.72%	Form I	99.91%	–	>20 mg/mL	–
varenicline phosphate [Example 13]	–	–	–	–	>20 mg/mL	Purity (HPLC) % 1 year later ([1]; listed as Phosphate Form I): 99.89%; Stability in terms of chemical purity and polymorphic form (in words) [1]: highly stable in terms of chemical purity and in terms of polymorphic form; XRD result Initial ([1]; listed as Phosphate Form I): Form I; Purity (HPLC) % initial ([1]; listed as Phosphate Form I): 100%; XRD result 1 year later ([1]; listed as Phosphate Form I): Form I; Solubility in water (in words) [2]: highly soluble
varenicline phosphate [Phosphate Form II]	99.93%	Form II	99.89%	Form II	–	–
varenicline succinate [Example 15]	–	–	–	–	>20 mg/mL	–
